Source: patent USRE48461E1, “Modulation of androgen receptor expression” (Ionis Pharmaceuticals, Inc., priority 2012, dated 2021)
Oligonucleotides are written 5' to 3', each unit as a sugar letter and its base; * is a phosphorothioate linkage, no mark a phosphodiester; rarer units and linkages stand in square brackets, end groups in braces. Plain capitals give the bases only. k = constrained ethyl (cEt); [5mC] = 5-methylcytosine; d = 2'-deoxy (DNA)

Tests used:
AR mRNA [1] = assay: Antisense inhibition of human AR in HuVEC cells, single concentration (electroporation, qRT-PCR RTS3559); format: cell-based; conditions: 500 nM ASO, electroporation, ~24 h
Description: Antisense oligonucleotides were designed targeting an AR nucleic acid and were tested for their effects on AR mRNA in vitro. The antisense oligonucleotides were tested in a series of experiments that had similar culture conditions. […] Human primer probe set RTS3559 (forward sequence [NT], designated herein as SEQ ID NO: 9; reverse sequence [NT], designated herein as SEQ ID NO: 10; probe sequence [NT], designated herein as SEQ ID NO: 11) was used to measure mRNA levels. AR mRNA levels were adjusted according to total RNA content, as measured by RIBOGREEN®. […] A total of 155 oligonucleotides were tested. Additional antisense oligonucleotides were designed targeting an AR nucleic acid and were tested for their effects on AR mRNA in vitro. […] Human primer probe set RTS3559 was used to measure mRNA levels. AR mRNA levels were adjusted according to total RNA content, as measured by RIBOGREEN®. […] A total of 82 oligonucleotides were tested. Additional antisense oligonucleotides were designed targeting an AR nucleic acid and were tested for their effects on AR mRNA in vitro. […] Human primer probe set RTS3559 was used to measure mRNA levels. AR mRNA levels were adjusted according to total RNA content, as measured by RIBOGREEN®. […] A total of 40 oligonucleotides were tested. Additional antisense oligonucleotides were designed targeting an AR nucleic acid and were tested for their effects on AR mRNA in vitro. […] Human primer probe set RTS3559 was used to measure mRNA levels. AR mRNA levels were adjusted according to total RNA content, as measured by RIBOGREEN®. […] A total of 75 oligonucleotides were tested. Additional antisense oligonucleotides were designed targeting an AR nucleic acid and were tested for their effects on AR mRNA in vitro. […] Human primer probe set RTS3559 was used to measure mRNA levels. AR mRNA levels were adjusted according to total RNA content, as measured by RIBOGREEN®. […] A total of 616 oligonucleotides were tested. Additional antisense oligonucleotides were designed targeting an AR nucleic acid and were tested for their effects on AR mRNA in vitro. […] Human primer probe set RTS3559 was used to measure mRNA levels. AR mRNA levels were adjusted according to total RNA content, as measured by RIBOGREEN®. […] A total of 385 oligonucleotides were tested.

AR mRNA [2] = assay: Dose-dependent antisense inhibition of human AR in HuVEC cells (electroporation, qRT-PCR RTS3559, IC50); format: cell-based; conditions: HuVEC, ~16 h
Description: (§1) After a treatment period of approximately 16 hours, RNA was isolated from the cells and AR mRNA levels were measured by quantitative real-time PCR. Human AR primer probe set RTS3559 was used to measure mRNA levels. AR mRNA levels were adjusted according to total RNA content, as measured by RIBOGREEN®. […] The antisense oligonucleotides were tested in a series of experiments that had similar culture conditions.
as §1, §1, §1, §1
(§2) After a treatment period of approximately 16 hours, RNA was isolated from the cells and AR mRNA levels were measured by quantitative real-time PCR. Human AR primer probe set RTS3559 was used to measure mRNA levels. AR mRNA levels were adjusted according to total RNA content, as measured by RIBOGREEN®.
as §2

Substance | % inhibition (AR mRNA [1]; Table 1) [%] | percent inhibition of AR (AR mRNA [2]; 55.6 nM, Table 3) [%] | percent inhibition of AR (AR mRNA [2]; 166.7 nM, Table 3) [%] | percent inhibition of AR (AR mRNA [2]; 500.0 nM, Table 3) [%] | percent inhibition of AR (AR mRNA [2]; 1500.0 nM, Table 3) [%] | IC50 (AR mRNA [2]; Table 3) [nM] | percent inhibition of AR (AR mRNA [2]; 55.6 nM, Table 4) [%] | percent inhibition of AR (AR mRNA [2]; 166.7 nM, Table 4) [%] | percent inhibition of AR (AR mRNA [2]; 500.0 nM, Table 4) [%] | percent inhibition of AR (AR mRNA [2]; 1500.0 nM, Table 4) [%] | IC50 (AR mRNA [2]; Table 4) [nM] | % inhibition (AR mRNA [1]; Table 2) [%]
549377 (kA*kG*kG*dA*dT*dG*dA*dG*dG*dA*dA*dG*d[5mC]*kG*kG*k[5mC]; antisense) [compound 549377] | 90 | 13 | 52 | 72 | 93 | 216 |  |  |  |  |  | 
549379 (kG*k[5mC]*kT*d[5mC]*d[5mC]*d[5mC]*dG*d[5mC]*d[5mC]*dT*d[5mC]*dG*d[5mC]*k[5mC]*kG*k[5mC]; antisense) [compound 549379] | 86 | 11 | 51 | 68 | 88 | 237 |  |  |  |  |  | 
549381 (kG*k[5mC]*k[5mC]*dG*d[5mC]*d[5mC]*dA*dG*dG*dG*dT*dA*d[5mC]*k[5mC]*kA*k[5mC]; antisense) [compound 549381] | 89 | 14 | 33 | 71 | 91 | 261 |  |  |  |  |  | 
549383 (k[5mC]*k[5mC]*kA*dA*dA*d[5mC]*dG*d[5mC]*dA*dT*dG*dT*d[5mC]*k[5mC]*k[5mC]*k[5mC]; antisense) [compound 549383] | 88 | 10 | 34 | 75 | 88 | 270 |  |  |  |  |  | 
549387 (kA*kG*k[5mC]*dT*dT*d[5mC]*dA*dT*d[5mC]*dT*d[5mC]*d[5mC]*dA*k[5mC]*kA*kG; antisense) [compound 549387] | 84 |  |  |  |  |  | 9 | 41 | 68 | 92 | 261 | 
549388 (kT*k[5mC]*k[5mC]*d[5mC]*dT*dT*d[5mC]*dA*dG*d[5mC]*dG*dG*d[5mC]*kT*k[5mC]*kT; antisense) [compound 549388] | 88 | 15 | 42 | 36 | 86 | 428 |  |  |  |  |  | 
549414 (kG*kT*kT*d[5mC]*dA*dT*dT*d[5mC]*dG*dA*dA*dG*dT*kT*k[5mC]*kA) [compound 549414] |  |  |  |  |  |  | 21 | 35 | 53 | 76 | 366 | 81
549432 (kG*kA*kG*dG*dA*dT*d[5mC]*dA*dT*d[5mC]*dA*d[5mC]*dA*kG*kA*kT) [compound 549432] |  |  |  |  |  |  | 15 | 46 | 80 | 92 | 179 | 90
